Assay results as given in article PMC8169650, “Identification of Small Molecule Inhibitors of a Mir155 Transcriptional Reporter in Th17 Cells” (Scientific Reports, 2021).
pEC50: −log10 of the molar value. Where two headings read alike, the source gives them in different places.

Experiments:
Mir155 reporter = Mir155 reporter Beta-Glo HTS assay (β-gal activity); assay type: cell-based, mouse; conditions: Mus musculus, 48 h, read-out: EC50, inhibition of Mir155 reporter expression
Procedure: To develop an assay for the HTS screen, CD4^+ T cells were purified from spleen and lymph nodes of the Mir155 reporter mice. The purified CD4^+ T cells were cultured under Th17 cell-polarizing conditions in twelve well plates following which differentiated Th17 cells were transferred and expanded in six well plates followed by a resting period of 2 days in T cell media (schema depicted in Fig. 1a). We first optimized the cell number to maximize the assay window. To this end, differentiated Th17 cells were plated at different cell densities in the wells of polystyrene 1536-well plates under Th17 polarizing conditions. T cell activation was accomplished using two protocols. In the first protocol, magnetic beads coupled to anti-CD3 and anti-CD28 antibodies (CD3/CD28 microbeads) were added to mediate T cell activation as induction of MiR155 expression requires engagement of the TCR CD3 complex (signal 1) plus the co-stimulatory molecule CD28 (signal 2). The cells along with the beads were incubated at 37 °C, 5% CO2 for 48 h and, subsequently, high-throughput quantitation of β-gal activity was performed after 30 min of incubation using the Beta-Glo Assay system (Fig. 1b).
The NPC collection was screened at seven concentrations (top concentration 46 µM; 1:5 dilution thereafter) and drug response curves for the compounds were generated using our qHTS curve class classification algorithm as described above.
CD4^+ cells were purified from spleens and lymph nodes of Mir155 reporter mice as described above. Briefly, single cell suspensions were prepared by mechanical disruption followed by lysis of red blood cells with 0.83% ammonium chloride. CD4^+ T cells were either isolated by FACS sorting (BD FACS Aria) or were positively selected using magnetic CD4 microbeads (Miltenyi Biotec)[43]. 1 million CD4^+ cells/well were cultured in anti-CD3/CD28 (1 µg/ml each) coated 12 well plates under Th17 polarization conditions following which differentiated Th17 cells were transferred and expanded in six well plates followed by a resting period of 2 days in T cell media. A cocktail containing 10 ng/ml each of IL-6, IL-1 β, IL-21 and TGF-β (0.5 ng/ml) and IFNγ, IL-4, IL-12 neutralizing antibodies (10 μg/ml) was used for the Th17 polarizing conditions. For the HTS assay, 2000 differentiated Th17 cells/well in Th17 polarizing media were added to Greiner-one high base solid bottom white tissue culture treated 1536 well plates (catalog # 789173-F) using a small cassette and a Multidrop Combi dispenser (Thermo Fisher Scientific Inc.,Waltham, MA). Compounds were added using a Kalypsys pintool (Columns 5–48) and magnetic beads coupled to anti-CD3 and anti-CD28 (CD3/CD28 microbeads) were added to mediate T cell activation. CD3/CD28 microbeads were not added to first 2 columns and those wells served as basal control. DMSO was added to columns 3 and 4 and served as 100% signal. The plates were incubated for 48 h at 37 °C, 5% CO2, 95% humidity covered with low evaporation stainless steel lids from Kalypsys. After 48 h of incubation, 5 µl of Beta-Glo reagent (Beta Glo Assay System, Promega) was added using a Bioraptor Flying Reagent Dispenser (Aurora Discovery-BD) and the plates were incubated at room temperature for 30 min. Luminescence signal was captured using a 10 s exposure with a ViewLux (Perkin Elmer) containing a luminescent filter. Beta Glo reagent consists of Beta Glo substrate and buffer that are combined to form the Beta Glo reagent (Beta Glo Assay System, Promega).

[1] = tested on: IL-17 production in Th17 cells; assay: Intracellular IL-17 flow cytometric cytokine assay under Th17 polarization; assay type: cell-based, mouse; conditions: for IL-17+ cells, gated on live CD4+CD44high cells: DMSO 32% (panel b), 36.8% (panel c); for IL-17 / RORγt plot, percent cells, gated on live CD4+CD44high: Fig. S2b, DMSO 32.4% / 21.2%; for inhibition at 20 µM: Mus musculus, 96 h, read-out: down-regulation (inhibition) of IL-17 production compared to control
Procedure: (§1) It has been previously shown that IL-17 production is defective in miR-155 deficient cells. […] To test the hit compounds for IL-17 downregulation, we purified naive CD4^+ T cells from C57BL/6 mice and cultured them under Th17 polarization condition. Small molecules at multiple concentrations (20 µM, 10 µM and 5 µM) were added 18 h post-plating of CD4^+ T cells on anti-CD3/CD28 coated plates and again on day 2 of culture (schema depicted in Fig. 3a).
(§2) Spleens and lymph nodes were harvested from mice and single cell suspensions were prepared by mechanical disruption followed by lysis of red blood cells with 0.83% ammonium chloride. CD4^+ T cells were either isolated by FACS sorting (BD FACS Aria) or were positively selected using magnetic CD4 microbeads (Miltenyi Biotec). For intracellular IL-17 quantitation by flow cytometry, 0.25 million cells/ well were plated in anti-CD3/CD28 (1 µg/ml) coated 48 well plates. A cocktail containing 10 ng/ml each of IL-6, IL-1 β, IL-21 and TGF-β (0.5 ng/ml) and IFNγ, IL-4, IL-12 neutralizing antibodies (10 μg/ml) was used for the Th17 polarizing conditions. All recombinant cytokines were purchased from R&D Systems and crosslinking antibodies were purified from hybridomas (Harlan). Cells were treated with small molecules at indicated concentrations at 18 h and 48 h of cell plating. On day 4 of the culture, cells were stimulated with 20 ng/ml of phorbol 12-myristate 13-acetate (PMA) and ionomycin (1 μg/ml) for 4 h in the presence of brefeldin A. Following stimulation, cells were stained with fixable viability dye (eBioscience) and surface stained for CD44 and CD4, permeabilized using cytofix/cytoperm (BD biosciences) and subsequently, stained for intracellular IL-17. Foxp3/Transcription Factor Staining kit (eBioscience) kit was used for intranuclear staining of RORγt. Samples were acquired on BD Fortessa and analyzed using Flowjo (Tree star Inc).

[2] = tested on: Th17 cells from Mir155 reporter mice; assay: HTS viability assay (CellTiter-Glo); assay type: cell-based, mouse; conditions: primary Th17 cells
Procedure: Next, the HTS assay was further validated for robustness by screening LOPAC1280, a collection of 1280 pharmacologically active compounds. The LOPAC collection contains biologically annotated compounds with diverse mechanism(s) including but not limited to pharma-developed tools, receptor ligands and approved drugs. Seven concentrations of each compound were assayed, ranging from 3 nM to 46 µM as five-fold dilutions. One assay plate was treated with DMSO to determine the assay robustness in the absence of compounds (Fig. 1d). A total of eight assay plates including DMSO plate were tested in the LOPAC pilot screen and the median assay parameter per plate was 21-fold signal-to-background (S/B) ratio and the median Z’-factor was 0.72 (Fig. 1e), thus further validating the robustness of this assay in a 1536-well format. Data was analyzed using a curve class classification algorithm which classifies dose responses in four categories (Class 1, 2, 3 and 4) based on the quality of curve fit to the data (r^2), the magnitude of the response (efficacy), and the number of asymptotes to the calculated curve. Compounds with a curve class of either − 1.1, − 1.2, − 2.1, − 2.2 in the primary assay were classified as pharmacologically active compounds. […] The LOPAC collection was additionally tested for toxic effects using the CellTiter-Glo Luminescent Cell Viability Assay (Promega) which measures ATP levels as a proxy for number of live cells to exclude toxic compounds. […] An ideal compound should antagonize Mir155 reporter with minimal effect on cell viability.
For the HTS viability assay, the T cells were purified, polarized, plated and treated with compounds as described above for HTS β-gal assay except Columns 1 and 2 had no cells and served as basal control. After 48 h of incubation, 3 μL of CellTiter-Glo reagent (Promega) was added using a Bioraptor Flying Reagent Dispenser (Aurora Discovery-BD)[50]. The plates were incubated for 15 min at room temperature and the luminescence signal was captured using a ViewLux (Perkin Elmer) containing a luminescent filter. […]

CD4+ T cells = assay: Viability dye and CD44 activation staining in the IL-17 flow cytometric assay; assay type: cell-based; conditions: Fig. S2a; for live cells (fixable viability dye, Live-dead): DMSO 77.4% / 80.6%; for CD4+ CD44+ cells: DMSO 97.2% / 98.2%
Procedure: as §1, §2

[3] = LC-MS analysis of compound stability
Procedure: We analyzed by liquid chromatography mass spectrometry (LC–MS) the 10 mM compound stock solutions in DMSO, stored at − 20 °C, that were used in the screening (older batch) versus the “fresh” solutions. […] Sample 2 is another sample that had been kept outside at room temperature for 30 days before evaluation.

Th17 cells = assay: RNA-seq of CD4+ T cells under Th17 polarizing conditions; assay type: cell-based, mouse; conditions: 20 µM, 24 h, vs DMSO
Excerpt: The (E)-1-(phenylsulfonyl)-2-styryl-1H-benzo[d] imidazoles were identified from the diversity library and the target for these compounds is not known. We investigated the possible molecular mechanism(s) regulating impaired Th17 cell function using whole-transcriptome RNA-sequencing (RNA-seq) of CD4^+ T cells treated with NCGC00108246 or NCGC00108250 (representative imidazole compounds) under Th17 polarizing conditions. We performed differential gene expression to compare the two imidazole-treated conditions (n = 6) to DMSO (n = 3). Imidazole treated samples (NCGC00108246 or NCGC00108250) had similar gene expression profiles and clustered together, and distinct from DMSO. […] We confirmed down-regulation of IL-17 cytokines (IL-17a and IL-17f.) in NCGC00108246 or NCGC00108250 treated cells (Fig. 4a,b). […] In alignment with the protein data, transcript levels for Th17 cell-specific transcription factor RORγt encoded by Rorc gene were not affected after treatment with imidazoles (Fig. S2b,c).
For RNA seq, T cells were treated with compounds for 24 h in Th17 polarizing conditions, following which RNA was extracted using the mirVana kit (Applied Biosystems). Qubit RNA broad range assay in the Qubit Flurometer (Invitrogen) was used to measure RNA concentration, following which RNA integrity was determined with Eukaryote Total RNA Nano Series II ChIP on a 2100 Bioanalyzer (Agilent). TruSeq RNA sample preparation kit (Illumina) was used to prepare RNA-seq libraries. Briefly, oligo-dT purified mRNA was fragmented and subjected to first and second strand cDNA synthesis. cDNA fragments were blunt ended, ligated to Illumina adaptors and PCR amplified to enrich for the fragments ligated to adaptors. The resulting cDNA libraries were verified and quantified on Agilent Bioanalyzer and single-end 96 cycle sequencing was conducted (Illumina) as previously described.
For data analysis, RNA-seq reads were aligned to the mm10 genome and the GRCm38 v87 transcriptome with STAR v2.5.2a[44] using default parameters and output tracks normalized by RPM (–outWigNorm RPM). RSEM v1.3[45] was used to calculate gene counts and TPMs on the transcriptome-aligned reads as previously described[16],[43]. Differential expression analysis was performed in R v3.5.2, using DESeq2[46] v1.22.2, resulting in 2328 differentially expressed genes when contrasting NCGC00108246 or NCGC00108250 treated samples versus DMSO controls. […] The volcano plot was generated with the R package (R-project.org at https://www.R-project.org/), Enhanced Volcano. Heatmaps were generated with the R package, pheatmap. Integrative Genomics Viewer v2.4.19[48] was used for visualization of normalized bigwig tracks.

[4] = Th17 cells from Mir155 reporter mice, β-gal signal
[5] = 20 µM, day 4, C57BL/6 CD4+ T cells

Q: With `O=C(Nc1ncc([N+](=O)[O-])s1)c1cccs1` [tenonitrozole, reference compound] as the molecule, how does the pEC50 (Mir155 reporter; [4]) read?
A: 6.85

Q: What about the “IL-17+ cells, gated on live CD4+CD44high cells” value (“IL-17+ cells, gated” for short) ([1]; 20 µM) of the same molecule?
A: 10.4%

Q: What about the “IL-17 / RORγt plot, percent cells, gated on live CD4+CD44high” value [1] of the same molecule?
A: 9.3%

Q: What about the inhibition at 20 µM [1, 5] of the same molecule?
A: 68%

Q: And the “cytotoxicity / cell viability” value [2]?
A: not because of toxicity of the compounds

Q: What about the “live cells (fixable viability dye, Live-dead)” value (CD4+ T cells) of the same molecule?
A: 70.6%

Q: What about the “CD4+ CD44+ cells” value (CD4+ T cells) of the same molecule?
A: 96.4%

Q: What about the “stability by LC–MS” value [3] of the same molecule?
A: stable and pure

Q: With `CCCSc1ccc2nc(NC(=O)OC)[nH]c2c1` [albendazole, reference compound] as the molecule, how does the pEC50 (Mir155 reporter) read?
A: 5.60

Q: And the “IL-17+ cells, gated” value ([1]; 20 µM)?
A: 14.2%

Q: What about the inhibition at 20 µM ([1]; CD4+ T) of the same molecule?
A: 55%

Q: And the “cytotoxicity / cell viability” value [2]?
A: not because of toxicity of the compounds

Q: What about the “stability by LC–MS” value [3] of the same molecule?
A: stable and pure

Q: With `c1ccc2[nH]c(-c3cscn3)nc2c1` [thiabendazole, reference compound] as the molecule, how does the pEC50 (Mir155 reporter; [4]) read?
A: 5.26

Q: What about the “IL-17+ cells, gated” value ([1]; 20 µM) of the same molecule?
A: 31%

Q: What about the “effect on IL-17 production” value ([1]; C57BL/6 CD4+ T cells, Th17 polarization) of the same molecule?
A: did not affect IL-17 production

Q: What about the “cytotoxicity / cell viability” value [2] of the same molecule?
A: not because of toxicity of the compounds

Q: What about the “stability by LC–MS” value [3] of the same molecule?
A: stable and pure

Q: With `CCOc1ccc(/C=C/c2nc3ccccc3n2S(=O)(=O)c2cccc(Cl)c2)cc1` [NCGC00108246] as the molecule, how does the pEC50 (Mir155 reporter; [4]) read?
A: 5.46

Q: What about the “IL-17+ cells, gated” value ([1]; 20 µM) of the same molecule?
A: 3.1%

Q: And the inhibition at 20 µM [1, 5]?
A: 90%

Q: And the “IL-17a and IL-17f transcripts” value (Th17 cells)?
A: down-regulation

Q: What about the “IL-22 and IL-23r transcripts” value (Th17 cells) of the same molecule?
A: down-regulated

Q: Which results are given for `CSc1ccc(/C=C/c2nc3ccccc3n2S(=O)(=O)c2cccc(Cl)c2)cc1` [NCGC00108250]?
A: pEC50 (Mir155 reporter; [4]): 5.70; IL-17+ cells, gated on live CD4+CD44high cells ([1]; 20 µM): 4.4%; IL-17 / RORγt plot, percent cells, gated on live CD4+CD44high [1]: 3.2%; inhibition at 20 µM [1, 5]: 88%; live cells (fixable viability dye, Live-dead) (CD4+ T cells): 80.5%; CD4+ CD44+ cells (CD4+ T cells): 96.1%; IL-17a and IL-17f transcripts (Th17 cells): down-regulation; IL-22 and IL-23r transcripts (Th17 cells): down-regulated
